This note sets out measurements from US20250281569A1, “COMPOSITIONS AND METHODS FOR TREATING NEUROENDOCRINE TUMORS” (CAMURUS AB, priority 2021, published 2025).

This data set can be described thus: Non-clinical bridging studies of toxicity, PK and local tolerability. Conditions: in vivo. An excerpt: In addition, the FluidCrystal® vehicle and the excipient glycerol dioleate have been evaluated.

As for `CCCCCCCC/C=C\CCCCCCCC(=O)OCC(CO)OC(=O)CCCCCCC/C=C\CCCCCCCC` (stereo not shown) [glycerol dioleate], the “main effects observed in non-clinical studies” value is “reversible injection-site reactions”.
